Like-named read-outs stand apart in the source and are kept apart here.
Experiments:
[1] = tested on: PTC in humans; conditions: cited from earlier work
[2] = tested on: HPTCs; conditions: similar experiments performed with HPTCs; cited from earlier work
[3] = tested on: hiPSC-derived HPTC-like cells
[4] = tested on: iPS(Foreskin)-4-derived d8 HPTC-like cells; conditions: human, 16 h
[5] = tested on: hiPSC-derived HPTC-like cells; test: nephrotoxicology in vitro model based on interleukin-6/interleukin-8 expression (Example 1)
[6] = target: OCT2 (Homo sapiens, UniProt O15244); conditions: co-incubation of 100 μg/ml rifampicin with 2 mM cimetidine, iPS(Foreskin)-4-derived d8 cells
Chain of OCT2 (O15244 whole entry): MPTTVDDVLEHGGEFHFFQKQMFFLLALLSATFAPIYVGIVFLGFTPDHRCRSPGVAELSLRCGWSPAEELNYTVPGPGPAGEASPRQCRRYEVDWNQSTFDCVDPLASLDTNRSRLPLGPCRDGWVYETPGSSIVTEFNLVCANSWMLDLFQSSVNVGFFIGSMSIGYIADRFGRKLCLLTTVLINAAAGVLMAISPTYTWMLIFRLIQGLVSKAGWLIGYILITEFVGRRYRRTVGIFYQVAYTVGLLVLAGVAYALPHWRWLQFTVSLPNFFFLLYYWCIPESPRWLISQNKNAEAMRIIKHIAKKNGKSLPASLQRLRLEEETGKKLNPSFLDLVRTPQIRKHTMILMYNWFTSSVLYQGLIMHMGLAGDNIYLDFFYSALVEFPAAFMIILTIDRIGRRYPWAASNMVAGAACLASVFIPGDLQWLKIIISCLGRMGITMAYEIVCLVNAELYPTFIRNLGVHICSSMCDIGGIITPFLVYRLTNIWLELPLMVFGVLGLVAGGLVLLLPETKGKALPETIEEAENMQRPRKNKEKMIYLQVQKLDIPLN

In the case of Gentamicin, the “nephrotoxicity / toxicity for PTC in humans” value [1] is given as “directly toxic for PTC” and the “cell numbers after treatment” value [2] is given as “a decrease in cell numbers was not observed”.
In the case of CO[C@H]1/C=C/O[C@@]2(C)Oc3c(C)c(O)c4c(O)c(c(/C=N/N5CCN(C)CC5)c(O)c4c3C2=O)NC(=O)/C(C)=C\C=C\[C@H](C)[C@H](O)[C@@H](C)[C@@H](O)[C@@H](C)[C@H](OC(C)=O)[C@@H]1C [Rifampicin], the “IL-6 expression after treatment” value [3] is reported as “increase”, the “IL-8 expression after treatment” value [3] is reported as “increase” and the “IL6 Expression Levels” value ([4]; 1 μg/ml) is reported as 5.8 ± 0.9. For the same compound, the “IL8 Expression Levels” value ([4]; 1 μg/ml) was 2.5 ± 0.4, the “IL6 Expression Levels” value ([4]; 10 μg/ml) was 4.5 ± 0.3 and the “IL8 Expression Levels” value ([4]; 10 μg/ml) was 3.4 ± 0.3. For the same compound, the “IL6 Expression Levels” value ([4]; 100 μg/ml) was 2.3 ± 0.2, the “IL8 Expression Levels” value ([4]; 100 μg/ml) was 9.7 ± 0.3 and the “increase of IL6 expression” value ([4]; 100 μg/ml) was ~17 fold. The “increase of IL8 expression” value ([4]; 100 μg/ml) was ~18 fold, the “IL6 Expression Levels” value ([4]; 1000 μg/ml) was 9.3 ± 0.6 and the “IL8 Expression Levels” value ([4]; 1000 μg/ml) was 18.2 ± 1.2.
For C[n+]1ccc(-c2cc[n+](C)cc2)cc1 [Paraquat], the “nephrotoxicity / toxicity for PTC in humans” value [1] is given as “directly toxic for PTC”, the “cell numbers after treatment” value [2] is given as “a decrease in cell numbers was not observed” and the “IL-6 expression after treatment” value [5] is given as “increase”.
For CN/C(=N/CCSCc1nc[nH]c1C)NC#N [cimetidine], the “reduction of rifampicin-induced IL6 expression” value [6] was 40% and the “reduction of rifampicin-induced IL8 expression” value [6] was 26%.

Source: patent publication US10351827B2, “Method for differentiating induced pluripotent stem cells into renal proximal tubular cell-like cells” (priority 2013, dated 2019)
